Measurements taken from patent publication US12077503B2, “Substituted cyclic amides and their use as herbicides” (FMC CORPORATION, priority 2015, dated 2024).

Key:
Format in all cases: in vivo
corn (Zea mays) [1] = assay: Test G Pre-Emergence Protocol; details: Zea mays, pre-emergence, 312 h, evaluated after 13 days; for plant injury at 15.625 g/ha: 15.625 g ai/ha; for plant injury at 15.625 g/ha / plant injury at 250 g/ha: read-out: Corn damage rating (100=total damage to plant; 0=no damage to plant); for plant injury at 62.5 g/ha: 62.5 g ai/ha, 100=total damage to plant, 0=no damage to plant, read-out: plant damage rating, Corn; for plant injury at 250 g/ha: 250 g ai/ha
How it was run: (§1)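 One day after sowing, pots are treated with a spray of test compound formulated in acetone/water 50:50 plus 0.5% Tween 20, giving 15.625, 62.5 or 250 g/ha. Evaluation on a 0–100 damage scale follows 13 days of glasshouse growth.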

[2] = test system: velvetleaf (Abutilon theophrasti); assay: Test G Pre-Emergence Protocol; details: Abutilon theophrasti, pre-emergence, 312 h, evaluated after 13 days; for pest or weed control at 15.625 g/ha: 15.625 g ai/ha; for pest or weed control at 15.625 g/ha / pest or weed control at 250 g/ha: read-out: Velvetleaf damage rating (100=total damage to plant; 0=no damage to plant); for pest or weed control at 62.5 g/ha: 62.5 g ai/ha, 100=total damage to plant, 0=no damage to plant, read-out: plant damage rating, Velvetleaf; for pest or weed control at 250 g/ha: 250 g ai/ha
How it was run: as §1

[3] = test system: redroot pigweed (Amaranthus retroflexus); assay: Test G Pre-Emergence Protocol; details: Amaranthus retroflexus, pre-emergence, 312 h, evaluated after 13 days; for pest or weed control at 15.625 g/ha: 15.625 g ai/ha; for pest or weed control at 15.625 g/ha / pest or weed control at 250 g/ha: read-out: Pigweed, Redroot damage rating (100=total damage to plant; 0=no damage to plant); for pest or weed control at 62.5 g/ha: 62.5 g ai/ha, 100=total damage to plant, 0=no damage to plant, read-out: plant damage rating, Pigweed, Redroot; for pest or weed control at 250 g/ha: 250 g ai/ha
How it was run: as §1

[4] = test system: ivy-leaved morning glory (Ipomoea hederacea); assay: Test G Pre-Emergence Protocol; details: Ipomoea, pre-emergence, 312 h, evaluated after 13 days; for pest or weed control at 15.625 g/ha: 15.625 g ai/ha, read-out: Morning-glory, Ivy-leaved damage rating (100=total damage to plant; 0=no damage to plant); for pest or weed control at 62.5 g/ha: 62.5 g ai/ha, 100=total damage to plant, 0=no damage to plant, read-out: plant damage rating, Morningglory, Ivy-leaved; for pest or weed control at 250 g/ha: 250 g ai/ha, read-out: Morningglory, Ivy-leaved damage rating (100=total damage to plant; 0=no damage to plant)
How it was run: as §1

[5] = test system: giant foxtail (Setaria faberi); assay: Test G Pre-Emergence Protocol; details: Setaria faberi, pre-emergence, 312 h, evaluated after 13 days; for pest or weed control at 15.625 g/ha: 15.625 g ai/ha; for pest or weed control at 15.625 g/ha / pest or weed control at 250 g/ha: read-out: Foxtail, Giant damage rating (100=total damage to plant; 0=no damage to plant); for pest or weed control at 62.5 g/ha: 62.5 g ai/ha, 100=total damage to plant, 0=no damage to plant, read-out: plant damage rating, Foxtail, Giant; for pest or weed control at 250 g/ha: 250 g ai/ha
How it was run: as §1

[6] = test system: barnyardgrass (Echinochloa crus-galli); assay: Test G Pre-Emergence Protocol; details: Echinochloa crus-galli, pre-emergence, 312 h, evaluated after 13 days; for pest or weed control at 15.625 g/ha: 15.625 g ai/ha, read-out: Barnyard grass damage rating (100=total damage to plant; 0=no damage to plant); for pest or weed control at 62.5 g/ha: 62.5 g ai/ha, 100=total damage to plant, 0=no damage to plant, read-out: plant damage rating, Barnyardgrass; for pest or weed control at 250 g/ha: 250 g ai/ha, read-out: Barnyardgrass damage rating (100=total damage to plant; 0=no damage to plant)
How it was run: as §1

corn (Zea mays) [7] = assay: Test G Post-Emergence Protocol; details: Zea mays, post-emergence, 312 h; for plant injury at 15.625 g/ha: 15.625 g ai/ha, evaluated after 13 days (100=total damage to plant; 0=no damage to plant), read-out: Corn damage rating; for plant injury at 62.5 g/ha: 62.5 g ai/ha, read-out: Corn damage rating (100=total damage to plant; 0=no damage to plant); for plant injury at 62.5 g/ha / plant injury at 250 g/ha: evaluated after 13 days; for plant injury at 250 g/ha: 250 g ai/ha, read-out: damage to plant, Corn (100=total damage to plant; 0=no damage to plant)
How it was run: (§2)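 A glasshouse post-emergence test: 8-day-old plants sprayed at 15.625, 62.5 or 250 g/ha, then grown at 24/16 °C day/night with 14 h light and 65% humidity. Damage rated 13 days later, 0–100.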

[8] = test system: velvetleaf (Abutilon theophrasti); assay: Test G Post-Emergence Protocol; details: Abutilon theophrasti, post-emergence, 312 h; for pest or weed control at 15.625 g/ha: 15.625 g ai/ha, evaluated after 13 days (100=total damage to plant; 0=no damage to plant), read-out: Velvetleaf damage rating; for pest or weed control at 62.5 g/ha: 62.5 g ai/ha, read-out: Velvetleaf damage rating (100=total damage to plant; 0=no damage to plant); for pest or weed control at 62.5 g/ha / pest or weed control at 250 g/ha: evaluated after 13 days; for pest or weed control at 250 g/ha: 250 g ai/ha, read-out: damage to plant, Velvetleaf (100=total damage to plant; 0=no damage to plant)
How it was run: as §2

[9] = test system: redroot pigweed (Amaranthus retroflexus); assay: Test G Post-Emergence Protocol; details: Amaranthus retroflexus, post-emergence, 312 h; for pest or weed control at 15.625 g/ha: 15.625 g ai/ha, evaluated after 13 days (100=total damage to plant; 0=no damage to plant), read-out: Pigweed, Redroot damage rating; for pest or weed control at 62.5 g/ha: 62.5 g ai/ha, read-out: Pigweed, Redroot damage rating (100=total damage to plant; 0=no damage to plant); for pest or weed control at 62.5 g/ha / pest or weed control at 250 g/ha: evaluated after 13 days; for pest or weed control at 250 g/ha: 250 g ai/ha, read-out: damage to plant, Pigweed, Redroot (100=total damage to plant; 0=no damage to plant)
How it was run: as §2

[10] = test system: ivy-leaved morning glory (Ipomoea hederacea); assay: Test G Post-Emergence Protocol; details: Ipomoea, post-emergence, 312 h; for pest or weed control at 15.625 g/ha: 15.625 g ai/ha, evaluated after 13 days (100=total damage to plant; 0=no damage to plant), read-out: Morningglory, Ivy-leaved damage rating; for pest or weed control at 62.5 g/ha: 62.5 g ai/ha, read-out: Morningglory, Ivy-leaved damage rating (100=total damage to plant; 0=no damage to plant); for pest or weed control at 62.5 g/ha / pest or weed control at 250 g/ha: evaluated after 13 days; for pest or weed control at 250 g/ha: 250 g ai/ha, read-out: damage to plant, Morningglory, Ivy-leaved (100=total damage to plant; 0=no damage to plant)
How it was run: as §2

[11] = test system: giant foxtail (Setaria faberi); assay: Test G Post-Emergence Protocol; details: Setaria faberi, post-emergence, 312 h; for pest or weed control at 15.625 g/ha: 15.625 g ai/ha, evaluated after 13 days (100=total damage to plant; 0=no damage to plant), read-out: Foxtail, Giant damage rating; for pest or weed control at 62.5 g/ha: 62.5 g ai/ha, read-out: Foxtail, Giant damage rating (100=total damage to plant; 0=no damage to plant); for pest or weed control at 62.5 g/ha / pest or weed control at 250 g/ha: evaluated after 13 days; for pest or weed control at 250 g/ha: 250 g ai/ha, read-out: damage to plant, Foxtail, Giant (100=total damage to plant; 0=no damage to plant)
How it was run: as §2

[12] = test system: barnyardgrass (Echinochloa crus-galli); assay: Test G Post-Emergence Protocol; details: Echinochloa crus-galli, post-emergence, 312 h; for pest or weed control at 15.625 g/ha: 15.625 g ai/ha, evaluated after 13 days (100=total damage to plant; 0=no damage to plant), read-out: Barnyardgrass damage rating; for pest or weed control at 62.5 g/ha: 62.5 g ai/ha, read-out: Barnyardgrass damage rating (100=total damage to plant; 0=no damage to plant); for pest or weed control at 62.5 g/ha / pest or weed control at 250 g/ha: evaluated after 13 days; for pest or weed control at 250 g/ha: 250 g ai/ha, read-out: damage to plant, Barnyardgrass (100=total damage to plant; 0=no damage to plant)
How it was run: as §2

Row | SMILES | plant injury at 15.625 g/ha (corn (Zea mays) [1]) | plant injury at 62.5 g/ha (corn (Zea mays) [1]) | plant injury at 250 g/ha (corn (Zea mays) [1]) | pest or weed control at 15.625 g/ha [2] | pest or weed control at 62.5 g/ha [2] | pest or weed control at 250 g/ha [2] | pest or weed control at 15.625 g/ha [3] | pest or weed control at 62.5 g/ha [3] | pest or weed control at 250 g/ha [3] | pest or weed control at 15.625 g/ha [4] | pest or weed control at 62.5 g/ha [4] | pest or weed control at 250 g/ha [4] | pest or weed control at 15.625 g/ha [5] | pest or weed control at 62.5 g/ha [5] | pest or weed control at 250 g/ha [5] | pest or weed control at 15.625 g/ha [6] | pest or weed control at 62.5 g/ha [6] | pest or weed control at 250 g/ha [6] | plant injury at 15.625 g/ha (corn (Zea mays) [7]) | plant injury at 62.5 g/ha (corn (Zea mays) [7]) | also measured
1 | CN1C[C@@H](c2ccc(C(F)(F)F)cc2)[C@H](C(=O)Nc2nccs2)C1=O (racemic) [Compound 1554] | 0% | 0% | 0% | 0% | 0% | 0% | 0% | 0% | 30% | 0% | 0% | 0% | 0% | 0% | 20% | 0% | 0% | 10% | 0% | 0% | plant injury at 250 g/ha (corn (Zea mays) [7]): 0%; pest or weed control at 15.625 g/ha [8]: 0%; pest or weed control at 62.5 g/ha [8]: 0%; pest or weed control at 250 g/ha [8]: 0%; pest or weed control at 15.625 g/ha [9]: 0%; pest or weed control at 62.5 g/ha [9]: 0%; pest or weed control at 250 g/ha [9]: 0%; pest or weed control at 15.625 g/ha [10]: 0%; pest or weed control at 62.5 g/ha [10]: 0%; pest or weed control at 250 g/ha [10]: 0%; pest or weed control at 15.625 g/ha [11]: 0%; pest or weed control at 62.5 g/ha [11]: 0%; pest or weed control at 250 g/ha [11]: 0%; pest or weed control at 15.625 g/ha [12]: 0%; pest or weed control at 62.5 g/ha [12]: 0%; pest or weed control at 250 g/ha [12]: 0%
2 | Cc1cc(NC(=O)[C@@H]2C(=O)N(C)C[C@H]2c2ccc(C(F)(F)F)cc2)no1 (racemic) [Compound 1556] | 0% | 0% | 0% | 0% | 0% | 0% | 0% | 0% | 20% | 0% | 0% | 0% | 0% | 0% | 0% | 0% | 0% | 0% | 0% | 0% | plant injury at 250 g/ha (corn (Zea mays) [7]): 0%; pest or weed control at 15.625 g/ha [8]: 0%; pest or weed control at 62.5 g/ha [8]: 0%; pest or weed control at 250 g/ha [8]: 0%; pest or weed control at 15.625 g/ha [9]: 0%; pest or weed control at 62.5 g/ha [9]: 0%; pest or weed control at 250 g/ha [9]: 0%; pest or weed control at 15.625 g/ha [10]: 0%; pest or weed control at 62.5 g/ha [10]: 0%; pest or weed control at 250 g/ha [10]: 0%; pest or weed control at 15.625 g/ha [11]: 0%; pest or weed control at 62.5 g/ha [11]: 0%; pest or weed control at 250 g/ha [11]: 0%; pest or weed control at 15.625 g/ha [12]: 0%; pest or weed control at 62.5 g/ha [12]: 0%; pest or weed control at 250 g/ha [12]: 20%
3 | Cc1ccnc(NC(=O)[C@@H]2C(=O)N(C)C[C@H]2c2ccc(C(F)(F)F)cc2)n1 (racemic) [Compound 1557] | 0% | 0% | 10% | 0% | 0% | 0% | 0% | 0% | 0% | 0% | 0% | 0% | 0% | 0% | 20% | 0% | 0% | 10% | 0% | 0% | plant injury at 250 g/ha (corn (Zea mays) [7]): 20%; pest or weed control at 15.625 g/ha [8]: 0%; pest or weed control at 62.5 g/ha [8]: 0%; pest or weed control at 250 g/ha [8]: 10%; pest or weed control at 15.625 g/ha [9]: 0%; pest or weed control at 62.5 g/ha [9]: 0%; pest or weed control at 250 g/ha [9]: 0%; pest or weed control at 15.625 g/ha [10]: 0%; pest or weed control at 62.5 g/ha [10]: 0%; pest or weed control at 250 g/ha [10]: 0%; pest or weed control at 15.625 g/ha [11]: 0%; pest or weed control at 62.5 g/ha [11]: 0%; pest or weed control at 250 g/ha [11]: 10%; pest or weed control at 15.625 g/ha [12]: 0%; pest or weed control at 62.5 g/ha [12]: 20%; pest or weed control at 250 g/ha [12]: 20%
